Tested on: Caenorhabditis elegans
Assay: C. elegans L1 nematicidal dose response in 96-well plates, 5 day visual score (Example 2; same procedure for Example 7, Table 3)
Format: in vivo
Parameters: key to 5 Day Visual Score V1 / 5 Day Visual Score V2 / 5 Day Visual Score V3 / 5 Day Visual Score V4 / 5 Day Visual Score V6 / 5 Day Visual Score V5 / Initial HTS Run Visual Score / Follow-up HTS Run Visual Score: Dead: only stiff L1s (no movement); Dead (L4): worms are dead, but at a later larval stage; majority of worms are L1 (based on size) worms move when plate is tapped; majority of worms are L2 (based on size); majority of worms are L3 (based on size); majority of worms are L4 (based on size); AD: majority of worms are adult; #AD: 5 adult worms or less; B!: sterile (0-25 progeny); B: low broodsize (25-100 progeny); ˜B: moderate broodsize (100-250 progeny); <: reduced broodsize (250-500 progeny); OK: no effect (˜1000+ progeny)
Settings: for 5 Day Visual Score V1 / 5 Day Visual Score V2 / 5 Day Visual Score V3 / 5 Day Visual Score V4 / 5 Day Visual Score V5 / 5 Day Visual Score V6: dose response; for 5 Day Visual Score V1: dilution V1, day 5; for 5 Day Visual Score V2: dilution V2, day 5; for 5 Day Visual Score V3: dilution V3, day 5; for 5 Day Visual Score V4: dilution V4, day 5; for 5 Day Visual Score V5: dilution V5, day 5; for 5 Day Visual Score V6: dilution V6, day 5
Experimental: Caenorhabditis elegans adults were grown on Nematode Growth Medium (NGM) until they produced eggs, then the adults were removed.
The eggs were allowed to hatch, and the L1 larvae collected. See The Nematode Caenorhabditis elegans (1988) Cold Spring Harbor Laboratory Press. Using a Matrix Programmable Pipette, the L1s were distributed into 96-well tissue culture plates, 20 L1 in 50 μl NGM per well. Antibiotic/Antimyoticwas added to each well, and 1% by weight E. coli strain HB101. The subject anthelmintic compounds were stored at 5 mM in 100% DMSO. 0.7 μl of compounds 1-31 were added to the left-most column of wells to yield a final concentration of 70 μM in 1.4% DMSO, with 1.4% DMSO only as the control. The compounds were then subjected to 5 more 3-fold dilutions from left to right to yield 6 column concentrations of 70 μM, 23.3 μM, 7.8 μM, 2.6 μM, 0.9 μM, and 0.3 μM. Plates were stored in air-tight Rubbermaid plastic boxes at 20° C. The nematodes had cleared all control wells by day 4, and nematode viability was scored by visual examination under a 100× dissecting microsope on day 5. A visual viability scoring system was used as follows:
Column V1 has a compound concentration of 70 μM with sequential 3-fold dilutions reported in columns V2, V3, V4, V5, and V6, respectively, such that the V6 concentration was 0.3 μM.
The nematicidal activity of anthelmintic Compositions 48-168 were determined in accordance with the procedure outlined in Example 2.

| SMILES | Follow-up HTS Run % Run [%] | Follow-up HTS Run Visual Score | Follow-up HTS Run mOD [mOD] | Initial HTS Run % Run [%] | Initial HTS Run Visual Score | Initial HTS Run mOD [mOD] | 5 Day Visual Score V1 | 5 Day Visual Score V2 | 5 Day Visual Score V3 | 5 Day Visual Score V4 | 5 Day Visual Score V5 | 5 Day Visual Score V6 |
| --- | --- | --- | --- | --- | --- | --- | --- | --- | --- | --- | --- | --- |
| Cc1cccc(C)c1N1CCN(c2nsc(N(CC(C)C)CC(C)C)n2)CC1 [compound 231] | 65 | 2AD/B | 105 | 119 | 2AD/B | 131 | Dead | Dead | < (reduced broodsize (250-500 progeny)) | OK (no effect (˜1000+ progeny)) | OK (no effect (˜1000+ progeny)) | OK (no effect (˜1000+ progeny)) |
| C=CCN(CC=C)c1nc(N2CCN(c3c(C)cccc3C)CC2)ns1 [compound 232] | 68 | Dead/1AD/B | 109 | 120 | 2AD/B | 132 | Dead |  | OK (no effect (˜1000+ progeny)) | OK (no effect (˜1000+ progeny)) | OK (no effect (˜1000+ progeny)) | OK (no effect (˜1000+ progeny)) |
| CCOC(=O)CCN(Cc1ccccc1)c1nc(N2CCN(c3c(C)cccc3C)CC2)ns1 [compound 233] | 93 | Dead | 150 | 113 | 1AD/B | 124 | Dead |  | ˜B (moderate broodsize (100-250 progeny)) | OK (no effect (˜1000+ progeny)) | OK (no effect (˜1000+ progeny)) | OK (no effect (˜1000+ progeny)) |
| Cc1cccc(C)c1N1CCN(c2nsc(N(C)CCc3ccccc3)n2)CC1 [compound 234] | 63 | 2AD/B | 102 | 120 | 3AD/B | 132 | Dead |  | ˜B (moderate broodsize (100-250 progeny)) | < (reduced broodsize (250-500 progeny)) | OK (no effect (˜1000+ progeny)) | OK (no effect (˜1000+ progeny)) |
| CCCCN(CC)c1nc(N2CCN(c3ncccn3)CC2)ns1 [compound 235] | 127 | L2 - 1/2 Dead | 205 | 128 | Dead (L3?) | 141 | Dead | #AD/˜B | OK (no effect (˜1000+ progeny)) | OK (no effect (˜1000+ progeny)) | OK (no effect (˜1000+ progeny)) | OK (no effect (˜1000+ progeny)) |
| CCCCN(CC)c1nc(N2CCN(c3ccc(F)cc3)CC2)ns1 [compound 236] | 123 | Dead | 198 | 136 | 1AD/B | 150 | Dead |  |  | < (reduced broodsize (250-500 progeny)) | < (reduced broodsize (250-500 progeny)) | OK (no effect (˜1000+ progeny)) |
| CCN(Cc1ccccc1)c1nc(N2CCN(c3ccc(F)cc3)CC2)ns1 [compound 237] | 117 |  | 189 | 133 |  | 146 | L1 | L1 | L1 | < (reduced broodsize (250-500 progeny)) | OK (no effect (˜1000+ progeny)) | OK (no effect (˜1000+ progeny)) |
| CCOC(=O)CCN(Cc1ccccc1)c1nc(N2CCN(c3ccc(F)cc3)CC2)ns1 [compound 238] | 122 | L4/AD/B | 197 | 135 | L4/Ad/B! | 148 | L1 |  | < (reduced broodsize (250-500 progeny)) | < (reduced broodsize (250-500 progeny)) | OK (no effect (˜1000+ progeny)) | OK (no effect (˜1000+ progeny)) |
| CCCCN(Cc1ccccc1)c1nc(N2CCCC(C(=O)N(CC)CC)C2)ns1 (stereo not drawn) [compound 239] | 132 | B (low broodsize (25-100 progeny)) | 212 | 134 | L4/AD/B! | 147 | L2 | B (low broodsize (25-100 progeny)) | OK (no effect (˜1000+ progeny)) | OK (no effect (˜1000+ progeny)) | OK (no effect (˜1000+ progeny)) | OK (no effect (˜1000+ progeny)) |
| Fc1ccc(CCNc2nsc(N3CCN(c4ccc(F)cc4)CC3)n2)cc1 [compound 240] | 86 | Dead | 138 | 101 |  | 111 | Dead | L1 |  | ˜B (moderate broodsize (100-250 progeny)) | < (reduced broodsize (250-500 progeny)) | OK (no effect (˜1000+ progeny)) |
| CCN(Cc1ccccc1)c1nc(NCCc2ccc(F)cc2)ns1 [compound 241] | 88 | B (low broodsize (25-100 progeny)) | 141 | 114 |  | 125 |  | ˜B (moderate broodsize (100-250 progeny)) | OK (no effect (˜1000+ progeny)) | OK (no effect (˜1000+ progeny)) | OK (no effect (˜1000+ progeny)) | OK (no effect (˜1000+ progeny)) |
| CCOC(=O)CCN(Cc1ccccc1)c1nc(NCCc2ccc(F)cc2)ns1 [compound 242] | 87 |  | 140 | 106 | Dead (L3?) | 117 |  | B (low broodsize (25-100 progeny)) | OK (no effect (˜1000+ progeny)) | OK (no effect (˜1000+ progeny)) | OK (no effect (˜1000+ progeny)) | OK (no effect (˜1000+ progeny)) |
| CN(CCc1ccccc1)c1nc(NCCc2ccc(F)cc2)ns1 [compound 243] | 86 | B (low broodsize (25-100 progeny)) | 139 | 115 | L4/AD/B! | 127 |  | B (low broodsize (25-100 progeny)) | OK (no effect (˜1000+ progeny)) | OK (no effect (˜1000+ progeny)) | OK (no effect (˜1000+ progeny)) | OK (no effect (˜1000+ progeny)) |
| CC1(C)CC(O)CC(C)(CNc2nsc(N3CCN(c4ccc(F)cc4)CC3)n2)C1 (stereo not drawn) [compound 244] | 104 | Dead | 167 | 125 | Dead | 138 | Dead | Dead | < (reduced broodsize (250-500 progeny)) | OK (no effect (˜1000+ progeny)) | OK (no effect (˜1000+ progeny)) | OK (no effect (˜1000+ progeny)) |
